We go through 3 compounds from patent US11306313B2, “Peptide, complex of peptide and siRNA, and methods of use thereof” (Positec Power Tools (Suzhou) Co., Ltd, priority 2013, dated 2022).

Where a SMILES comes first, the peptide text is derived from it.

A short description of data set [1]: Cytotoxicity test (CCK8 cell viability). To be noted: CHO-K1 cells, FIG. 5, molar ratio 20/1 and 40/1, siRNA 50 nM, read-out: cell survival rate. The class given is cell-based. Here is the method: CHO-K1 cells were seeded at 5,000-8,000 cells/well in clear, flat-bottomed, 96-well plates in triplicate and grown for 24 h at 37° C. with 5% CO2. The complexes or control samples were added to the cells in 150 μl of standard media and the cells were incubated for 48 h. The CCK8 assay was used to determine cell viability, according to the manufacturer's instructions. Briefly, […] of CCK8 stock was added to each well and incubated for 2 h at 37° C. in 5% CO2. Then, the cultures were removed from the incubator and the absorbance at 570 nm was read on a plate reader (FLUOstar OPTIMA, BMG, Germany). The background absorbance of the multiwell plates at 690 nm was determined and subtracted from the 570 nm measurement. The results obtained from triplicate wells were averaged and normalized using the value obtained for non-treated cells.

A short description of a further data set: Cell absorption test. It is filed as cell-based.
The conditions of data set [2]: reported in WO2013/075244 A1; cited from earlier work.
The conditions of data set [3]: reported in WO2013/075244 A1; cited from earlier work. The source holds these as a separate data set.

For `CC(=O)NCC(=O)N[C@@H](CC(C)C)C(=O)N[C@@H](Cc1c[nH]c2ccccc12)C(=O)N[C@@H](Cc1c[nH]cn1)C(=O)N[C@@H](C)C(=O)N[C@@H](Cc1c[nH]c2ccccc12)C(=O)N[C@@H](CC(C)C)C(=O)N[C@@H](Cc1c[nH]c2ccccc12)C(=O)N[C@@H](Cc1c[nH]cn1)C(=O)N[C@@H](C)C(=O)N[C@@H](Cc1ccccc1)C(=O)N[C@@H](CC(C)C)C(=O)N[C@@H](C)C(=O)N[C@@H](CO)C(=O)N[C@@H](Cc1c[nH]cn1)C(=O)N[C@@H](CCCNC(=N)N)C(=O)N[C@@H](CC(C)C)C(=O)N[C@@H](CC(C)C)C(=O)N[C@@H](CCCNC(=N)N)C(=O)N[C@@H](CC(C)C)C(=O)N[C@@H](CC(C)C)C(=O)N[C@@H](CCCNC(=N)N)C(N)=O` [GL5, CH3CONH-GLWHAWLWHAFLASHR LLRLLR-CONH2] (Ac-GLWHAWLWHAFLASHRLLRLLR-NH2), the viability at 48 h in data set [1] is roughly 105%.

Turning to “CH3(CH2)16CONH-HHHHHHHHHHHHHHHHRRRRRRRR-CONH2 (stearyl-HHHHHHHHHHHHHHHHRRRRRRRR-NH2) [STR-HR]”, in “Cell absorption test”, the “absorption efficiency compared with lipid 2000” value is “higher than that of lipid 2000”. For “GLWRAWLWKAFLASNWRRLLRLLR (Synthetic sequence - peptide GL1)”, the “siRNA delivery (uptake) efficiency” value in data set [2] is “about 95%”. Besides, the gene silencing efficiency result in data set [3] is “about 50%”.
